Target: T1, CFTR (Homo sapiens, UniProt P13569, DEL508-508)
T1 construct: Primary CF airway epithelial cells were obtained from the UNC Cystic Fibrosis Tissue Procurement and Cell Culture Core; host or cells: primary CF airway epithelial cells
Assay: Equivalent current assay in Primary CF airway epithelial cells (NAUC)
Assay type: cell-based
Conditions: 24 h, normalized to VX809 (3 μM) positive control; for Nauc @ 3 μM: 3 μM test compound; for Nauc @ 10 μM: 10 μM test compound
Summary of the method: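 NAUC is the area under the curve from forskolin (10 μM) plus VX770 (1 μM) addition to CFTR-172 (20 μM) block, after benzamil (5 μM). It is corrected for vehicle and scaled to 3 μM VX809 as 1.0 and DMSO as 0.0. Cells were exposed for 24 h to compounds with VX809; medians of ≥4 replicates were fitted sigmoidally.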

T1 sequence (P13569 with tags, fused parts or gaps DEL508-508): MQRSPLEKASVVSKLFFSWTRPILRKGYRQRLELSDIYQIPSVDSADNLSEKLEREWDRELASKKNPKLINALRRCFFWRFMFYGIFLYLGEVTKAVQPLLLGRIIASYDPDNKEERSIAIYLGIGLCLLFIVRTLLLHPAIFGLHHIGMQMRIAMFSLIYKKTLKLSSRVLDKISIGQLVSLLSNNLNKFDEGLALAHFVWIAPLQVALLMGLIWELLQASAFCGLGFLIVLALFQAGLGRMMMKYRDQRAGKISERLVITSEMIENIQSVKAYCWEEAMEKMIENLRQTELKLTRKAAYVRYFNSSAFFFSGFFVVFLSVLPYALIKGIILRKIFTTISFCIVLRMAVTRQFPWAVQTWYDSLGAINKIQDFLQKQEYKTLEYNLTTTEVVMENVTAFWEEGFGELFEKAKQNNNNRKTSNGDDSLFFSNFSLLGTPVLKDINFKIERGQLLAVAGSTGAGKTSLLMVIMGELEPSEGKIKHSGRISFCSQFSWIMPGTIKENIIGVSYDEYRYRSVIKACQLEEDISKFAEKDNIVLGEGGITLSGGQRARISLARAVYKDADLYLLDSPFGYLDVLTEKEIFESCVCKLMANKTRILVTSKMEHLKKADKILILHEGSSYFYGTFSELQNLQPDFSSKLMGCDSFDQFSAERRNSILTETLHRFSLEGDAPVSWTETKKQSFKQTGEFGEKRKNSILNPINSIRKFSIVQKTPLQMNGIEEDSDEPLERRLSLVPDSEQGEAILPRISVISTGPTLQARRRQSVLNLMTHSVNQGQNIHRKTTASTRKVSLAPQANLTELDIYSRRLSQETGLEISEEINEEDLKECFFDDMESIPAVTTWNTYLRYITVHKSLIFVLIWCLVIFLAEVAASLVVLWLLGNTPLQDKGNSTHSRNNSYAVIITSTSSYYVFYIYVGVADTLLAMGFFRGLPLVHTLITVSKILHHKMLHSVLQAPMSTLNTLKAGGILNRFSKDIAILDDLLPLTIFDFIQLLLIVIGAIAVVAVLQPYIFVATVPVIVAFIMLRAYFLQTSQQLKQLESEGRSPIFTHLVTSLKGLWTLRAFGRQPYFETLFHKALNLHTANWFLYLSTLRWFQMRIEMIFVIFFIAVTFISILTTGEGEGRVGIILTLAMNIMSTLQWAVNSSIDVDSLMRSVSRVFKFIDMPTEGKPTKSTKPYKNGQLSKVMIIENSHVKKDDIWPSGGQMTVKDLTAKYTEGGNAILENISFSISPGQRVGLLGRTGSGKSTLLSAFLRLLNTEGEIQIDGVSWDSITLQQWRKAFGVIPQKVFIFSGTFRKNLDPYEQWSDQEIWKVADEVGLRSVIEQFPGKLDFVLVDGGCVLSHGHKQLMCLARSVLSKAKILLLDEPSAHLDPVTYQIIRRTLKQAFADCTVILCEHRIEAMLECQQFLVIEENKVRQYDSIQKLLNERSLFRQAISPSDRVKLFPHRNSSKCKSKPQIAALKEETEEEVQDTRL

Row | Structure (SMILES) | Nauc @ 3 μM | Nauc @ 10 μM
1 | COc1c(Cl)cc(N2C(=O)C3C4CC(C)(C)CN4C4(C(=O)Nc5c(Cl)cc(Cl)cc54)C3C2=O)cc1Cl (single isomer, unassigned) [Example 141] | + (NAUC “+” refers to an observed NAUC <140% of positive control) | ++ (NAUC “++” refers to an observed NAUC 170-140% of positive control)
2 | O=C1C2C(Cc3ccccc3Cl)NC3(C(=O)Nc4c(Cl)cc(Cl)cc43)C2C(=O)N1c1cc(Cl)cc(Cl)c1 (centres unmarked) [Example 236] | +++ (NAUC “+++” refers to an observed NAUC >170% of positive control) | ++ (NAUC “++” refers to an observed NAUC 170-140% of positive control)
3 | Cc1ccccc1CC1NC2(C(=O)Nc3c(Cl)cc(Cl)cc32)C2C(=O)N(c3cc(Cl)cc(Cl)c3)C(=O)C12 (centres unmarked) [Example 199] | +++ (NAUC “+++” refers to an observed NAUC >170% of positive control) | ++ (NAUC “++” refers to an observed NAUC 170-140% of positive control)
4 | COc1cc(Cl)cc(N2C(=O)C3C4CCCN4C4(C(=O)Nc5c(Cl)cc(Cl)cc54)C3C2=O)c1 (single isomer, unassigned) [Example 105] | ++ (NAUC “++” refers to an observed NAUC 170-140% of positive control) | ++ (NAUC “++” refers to an observed NAUC 170-140% of positive control)
5 | O=C1C2C3CC(=C(F)F)CN3C3(C(=O)Nc4c(Cl)cc(Cl)cc43)C2C(=O)N1c1cc(C(F)(F)F)cc(C(F)(F)F)c1 (centres unmarked) [Example 125] | +++ (NAUC “+++” refers to an observed NAUC >170% of positive control) | + (NAUC “+” refers to an observed NAUC <140% of positive control)
6 | O=C1C2C3C[C@H](O)CN3C3(C(=O)Nc4c(Cl)cc(Cl)cc43)C2C(=O)N1c1cc(C(F)(F)F)cc(C(F)(F)F)c1 (some centres unmarked) [Example 43] | ++ (NAUC “++” refers to an observed NAUC 170-140% of positive control) | +++ (NAUC “+++” refers to an observed NAUC >170% of positive control)
7 | CC1CC2C3C(=O)N(c4cc(Cl)cc(Cl)c4)C(=O)C3C3(C(=O)Nc4c(Cl)cc(Cl)cc43)N2C1 (centres unmarked) [Example 71] | + (NAUC “+” refers to an observed NAUC <140% of positive control) | +++ (NAUC “+++” refers to an observed NAUC >170% of positive control)
8 | CC(=O)N[C@H]1CC2C3C(=O)N(c4cc(Cl)cc(Cl)c4)C(=O)C3C3(C(=O)Nc4c(Cl)cc(Cl)cc43)N2C1 (some centres unmarked) [Example 135] | +++ (NAUC “+++” refers to an observed NAUC >170% of positive control) | + (NAUC “+” refers to an observed NAUC <140% of positive control)
9 | O=C1C2C3CC(C(F)F)CN3C3(C(=O)Nc4c(Cl)cc(Cl)cc43)C2C(=O)N1c1cc(Cl)cc(Cl)c1 (centres unmarked) [Example 136] | +++ (NAUC “+++” refers to an observed NAUC >170% of positive control) | +++ (NAUC “+++” refers to an observed NAUC >170% of positive control)
10 | N#Cc1ccc(CC2NC3(C(=O)Nc4c(Cl)cc(Cl)cc43)C3C(=O)N(c4cc(Cl)cc(Cl)c4)C(=O)C23)cc1 (centres unmarked) [Example 189] | + (NAUC “+” refers to an observed NAUC <140% of positive control) | +++ (NAUC “+++” refers to an observed NAUC >170% of positive control)
11 | O=C1C2C3C[C@H](CF)CN3C3(C(=O)Nc4c(Cl)cc(Cl)cc43)C2C(=O)N1c1cc(Cl)cc(Cl)c1 (some centres unmarked) [Example 109] | ++ (NAUC “++” refers to an observed NAUC 170-140% of positive control) | ++ (NAUC “++” refers to an observed NAUC 170-140% of positive control)
12 | O=C1C2C(Cc3ccccc3Cl)NC3(C(=O)Nc4c(Cl)cc(Cl)cc43)C2C(=O)N1c1cc(Cl)cc(Cl)c1 (centres unmarked) [Example 246] | +++ (NAUC “+++” refers to an observed NAUC >170% of positive control) | +++ (NAUC “+++” refers to an observed NAUC >170% of positive control)
13 | C=C1CC2C3C(=O)N(c4cc(Cl)cc(Cl)c4)C(=O)C3C3(C(=O)Nc4c(Cl)cc(Cl)cc43)N2C1 (single isomer, unassigned) [Example 144] | +++ (NAUC “+++” refers to an observed NAUC >170% of positive control) | +++ (NAUC “+++” refers to an observed NAUC >170% of positive control)
14 | O=C1C2C3CCCN3C3(C(=O)Nc4ccc(Cl)cc43)C2C(=O)N1c1cc(Cl)cc(Cl)c1 (centres unmarked) [Example 85] | ++ (NAUC “++” refers to an observed NAUC 170-140% of positive control) | +++ (NAUC “+++” refers to an observed NAUC >170% of positive control)
15 | O=C1C2C3CCCN3C3(C(=O)Nc4c(Cl)cc(Cl)cc43)C2C(=O)N1c1cc(Br)cc(Br)c1 (centres unmarked) [Example 27] | ++ (NAUC “++” refers to an observed NAUC 170-140% of positive control) | ++ (NAUC “++” refers to an observed NAUC 170-140% of positive control)
16 | CC12C(=O)N(c3cc(Cl)cc(Cl)c3)C(=O)C1C1(C(=O)Nc3c(Cl)cc(Cl)cc31)N1CCCC12 (centres unmarked) [Example 44] | ++ (NAUC “++” refers to an observed NAUC 170-140% of positive control) | + (NAUC “+” refers to an observed NAUC <140% of positive control)
17 | COc1c(Cl)cc(N2C(=O)C3C4C[C@H](F)CN4C4(C(=O)Nc5c(Cl)cc(Cl)cc54)C3C2=O)cc1Cl (some centres unmarked) [Example 78] | +++ (NAUC “+++” refers to an observed NAUC >170% of positive control) | +++ (NAUC “+++” refers to an observed NAUC >170% of positive control)
18 | C[C@]1(F)CC2C3C(=O)N(c4cc(Cl)cc(Cl)c4)C(=O)C3C3(C(=O)Nc4c(Cl)cc(Cl)cc43)N2C1 (some centres unmarked) [Example 204] | + (NAUC “+” refers to an observed NAUC <140% of positive control) | +++ (NAUC “+++” refers to an observed NAUC >170% of positive control)
19 | O=C1C2C3CCCN3C3(C(=O)Nc4c(Cl)cc(Cl)cc43)C2C(=O)N1c1cc(C(F)(F)F)cc(C(F)(F)F)c1 (centres unmarked) [Example 16] | +++ (NAUC “+++” refers to an observed NAUC >170% of positive control) | +++ (NAUC “+++” refers to an observed NAUC >170% of positive control)

Reference: US10072017B2, “Compounds and methods for the treatment of cystic fibrosis” (Flatley Discovery Lab, LLC, priority 2015, dated 2018)
